According to ChEMBL document CHEMBL4819126, “Enantiomeric profiling of a chiral benzothiazole necroptosis inhibitor” (Bioorg Med Chem Lett, 2021):
Activity calls are given as the source filed them. The calls are words filed in the database; no cut-off is given here.

Columns and labels:
HT-29 [1] = assay: Anti-necroptotic activity in human HT-29 cells assessed as inhibition of TNFalpha/Z-VAD-fmk (TCZ)-induced necroptosis pretreated for 8 to 12 hrs; type: functional, cell-based
L929 [2] = assay: Anti-necroptotic activity in mouse L929 cells assessed as inhibition of TZ-induced necroptosis measured after 9 hrs; type: functional, cell-based
[3] = target: T1, Receptor-interacting serine/threonine-protein kinase 1 (Homo sapiens) (UniProt Q13546); assay: Inhibition of RIPK1 in human HT-29 cells assessed as inhibition of TSZ-induced RIPK1 phosphorylation at 1 uM measured upto 4 hrs by Western blot analysis; type: cell-based; conditions: time hrs <=4
T1 sequence (whole entry): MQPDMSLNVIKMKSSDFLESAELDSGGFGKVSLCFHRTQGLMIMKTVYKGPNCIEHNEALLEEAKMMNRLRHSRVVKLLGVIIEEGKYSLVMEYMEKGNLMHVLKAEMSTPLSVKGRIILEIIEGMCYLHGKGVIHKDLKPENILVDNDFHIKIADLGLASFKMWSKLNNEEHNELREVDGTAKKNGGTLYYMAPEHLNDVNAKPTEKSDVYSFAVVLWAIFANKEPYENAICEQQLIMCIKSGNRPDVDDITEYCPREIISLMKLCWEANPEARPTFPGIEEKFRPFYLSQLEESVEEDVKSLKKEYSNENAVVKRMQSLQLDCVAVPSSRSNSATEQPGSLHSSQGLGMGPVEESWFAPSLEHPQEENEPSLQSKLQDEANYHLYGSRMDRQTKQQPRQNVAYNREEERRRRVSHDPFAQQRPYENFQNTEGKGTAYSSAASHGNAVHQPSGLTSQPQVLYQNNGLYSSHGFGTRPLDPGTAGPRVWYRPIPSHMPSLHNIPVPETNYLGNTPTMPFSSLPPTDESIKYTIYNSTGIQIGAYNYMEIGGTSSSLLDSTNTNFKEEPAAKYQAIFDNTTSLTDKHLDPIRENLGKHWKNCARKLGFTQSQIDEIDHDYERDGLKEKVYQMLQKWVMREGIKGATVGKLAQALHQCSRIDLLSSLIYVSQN

[4] = target: Receptor-interacting serine/threonine-protein kinase 3 (Homo sapiens, UniProt Q9Y572); assay: Inhibition of human wild type RIPK3 (M1 to Q307) expressed in bacterial system by kinomescan assay
[5] = target: T2, Receptor-interacting serine/threonine-protein kinase 1 (Mus musculus) (UniProt Q60855); assay: Inhibition of RIPK1 in mouse L929 cells assessed as TZ-induced MLKL phosphorylation at 1 uM measured upto 4 hrs by Western blot analysis; type: cell-based; conditions: time hrs <=4
T2 sequence (whole entry): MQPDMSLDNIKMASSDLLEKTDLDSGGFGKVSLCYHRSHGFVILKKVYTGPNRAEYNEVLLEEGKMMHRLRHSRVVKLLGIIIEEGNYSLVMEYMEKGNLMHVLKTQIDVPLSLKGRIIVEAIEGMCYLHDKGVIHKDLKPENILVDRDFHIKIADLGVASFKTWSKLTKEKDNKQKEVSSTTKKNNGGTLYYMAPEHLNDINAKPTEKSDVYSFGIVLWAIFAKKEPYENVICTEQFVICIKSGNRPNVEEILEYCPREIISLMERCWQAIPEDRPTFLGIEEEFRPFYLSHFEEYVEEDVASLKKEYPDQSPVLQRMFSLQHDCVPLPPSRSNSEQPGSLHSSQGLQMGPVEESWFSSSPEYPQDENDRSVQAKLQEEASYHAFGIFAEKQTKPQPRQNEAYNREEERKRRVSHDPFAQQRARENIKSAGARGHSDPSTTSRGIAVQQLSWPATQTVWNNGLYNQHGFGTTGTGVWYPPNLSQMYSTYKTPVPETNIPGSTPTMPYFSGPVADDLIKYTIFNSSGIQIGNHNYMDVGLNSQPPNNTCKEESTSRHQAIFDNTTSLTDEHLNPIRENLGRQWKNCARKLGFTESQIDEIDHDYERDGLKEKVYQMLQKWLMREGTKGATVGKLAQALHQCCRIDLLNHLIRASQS

[6] = target: T3, Receptor-interacting serine/threonine-protein kinase 1 (Homo sapiens, UniProt Q13546); assay: Inhibition of human wild type RIPK1 (M1 to K305) expressed in bacterial system by kinomescan assay
T3 sequence (Q13546 whole entry): T1 sequence (whole entry)

L929 [7] = assay: Anti-necroptotic activity in mouse L929 cells assessed as inhibition of mTNFalpha-induced necroptosis measured after 9 hrs; type: functional
[8] = target: T1, Receptor-interacting serine/threonine-protein kinase 1 (Homo sapiens); assay: Inhibition of RIPK1 in human HT-29 cells assessed as inhibition of TSZ-induced MLKL phosphorylation at 1 uM measured upto 4 hrs by Western blot analysis; type: cell-based; conditions: time hrs <=4
[9] = target: T1, Receptor-interacting serine/threonine-protein kinase 1 (Homo sapiens); assay: Inhibition of RIPK1 in human HT-29 cells assessed as inhibition of TSZ-induced RIPK3 phosphorylation at 1 uM measured upto 4 hrs by Western blot analysis; type: cell-based; conditions: time hrs <=4
HT-29 [10] = assay: Anti-necroptotic activity in human HT-29 cells assessed as inhibition of TNFalpha/TS induced necroptosis uM measured after 36 hrs; type: functional, cell-based
[11] = target: T2, Receptor-interacting serine/threonine-protein kinase 1 (Mus musculus); assay: Inhibition of RIPK1 in mouse L929 cells assessed as TZ-induced RIPK3 phosphorylation at 1 uM measured upto 4 hrs by Western blot analysis; type: cell-based; conditions: time hrs <=4
HT-29 [12] = assay: Anti-necroptotic activity in human HT-29 cells assessed as inhibition of TSZ induced necroptosis measured after 12 hrs; type: functional, cell-based; conditions: dose 0.025-25 µM
U-937 = assay: Anti-necroptotic activity against TNFalph/Z-VAD-FMK-induced human U-937 cells assessed as cell viability measured after 19 to 21 hrs by CellTiter-Glo luminescent cell viability assay; type: functional, cell-based
HT-29 [13] = assay: Anti-necroptotic activity in human HT-29 cells assessed as inhibition of TSZ induced necroptosis at 2.5 uM measured after 12 hrs; type: functional, cell-based
HT-29 [14] = assay: Anti-necroptotic activity in human HT-29 cells assessed as inhibition of TSZ induced necroptosis at 0.25 uM measured after 12 hrs; type: functional; parameters: scale not given: the % may be the effect or the level left
L929 [15] = assay: Anti-necroptotic activity against TNFalph/Z-VAD-FMK-induced mouse L929 cells assessed as cell viability measured after 19 to 21 hrs by CellTiter-Glo luminescent cell viability assay; type: functional, cell-based

Sequence of Receptor-interacting serine/threonine-protein kinase 3 (Q9Y572 whole entry): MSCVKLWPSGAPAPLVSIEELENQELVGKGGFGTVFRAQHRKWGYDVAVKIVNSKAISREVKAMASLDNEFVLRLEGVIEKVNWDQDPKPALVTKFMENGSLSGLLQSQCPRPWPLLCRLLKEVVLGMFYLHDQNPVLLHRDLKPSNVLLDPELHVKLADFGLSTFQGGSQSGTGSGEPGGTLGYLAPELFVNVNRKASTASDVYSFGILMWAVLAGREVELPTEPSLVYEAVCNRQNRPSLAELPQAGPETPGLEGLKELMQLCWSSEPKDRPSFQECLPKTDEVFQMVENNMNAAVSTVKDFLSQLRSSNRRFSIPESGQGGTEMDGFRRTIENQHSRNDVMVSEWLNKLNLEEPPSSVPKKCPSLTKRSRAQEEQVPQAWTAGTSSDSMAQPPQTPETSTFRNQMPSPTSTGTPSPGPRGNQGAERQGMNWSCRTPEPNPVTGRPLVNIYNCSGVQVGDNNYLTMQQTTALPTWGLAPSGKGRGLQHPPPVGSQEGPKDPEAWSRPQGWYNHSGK

Compound | EC50 (HT-29 [1]) [nM] | Activity (L929 [2]) | inhibition [3] | Kd [4] [nM] | inhibition [5] | Kd [6] [nM] | inhibition (INH) (L929 [7]) [%] | inhibition [8] | inhibition [9] | Activity (HT-29 [10]) | inhibition [11] | Activity (HT-29 [12]) | IC50 (U-937) [nM] | inhibition (HT-29 [13]) | Activity (HT-29 [14]) [%] | IC50 (L929 [15]) [nM]
CC1(C)CC1C(=O)Nc1nc2ccc(Oc3ccc(F)c(NC(=O)Cc4cccc(C(F)(F)F)c4)c3)cc2s1 (racemic) | 310 | Dose-Dependent Effect | Active | 270 | 100% | 480 | 100 | Active | Active | Dose-Dependent Effect | 100% | Dose-Dependent Effect | – | – | – | –
CC(C)(C)C(=O)N1N=CC[C@@H]1c1ccccc1 | – | – | – | – | – | – | – | – | – | – | – | – | > 10000 | – | – | –
CN1C(=O)[C@@H](NC(=O)c2cc(Cc3ccccc3)on2)COc2ccccc21 | – | – | – | – | – | – | – | – | – | – | – | – | 10 | – | – | –
CN1C(=O)[C@H](NC(=O)c2cc(Cc3ccccc3)on2)COc2ccccc21 | – | – | – | – | – | – | – | – | – | – | – | – | > 10000 | – | – | –
CC1(C)C[C@H]1C(=O)Nc1nc2ccc(Oc3ccc(F)c(NC(=O)Cc4cccc(C(F)(F)F)c4)c3)cc2s1 | 290 | Dose-Dependent Effect | Active | 650 | Active | 1700 | 100 | Active | Active | Dose-Dependent Effect | Active | – | – | Active | – | –
CC1(C)C[C@@H]1C(=O)Nc1nc2ccc(Oc3ccc(F)c(NC(=O)Cc4cccc(C(F)(F)F)c4)c3)cc2s1 | 150 | Dose-Dependent Effect | Active | 145 | Active | 430 | 100 | Active | Active | Dose-Dependent Effect | Active | – | – | Active | 90 | –
CC(C)(C)C(=O)N1N=CC[C@H]1c1ccccc1 | – | – | – | – | – | – | – | – | – | – | – | – | – | – | – | 3.1
